In patent US20260217660A1, “INHIBITORS OF ACTIVIN RECEPTOR TYPE I (ACVRI) AND ACTIVIN RECEPTOR LIKE TYPE I (ACVRLI), AND METHODS USING SAME” (Baylor College of Medicine, priority 2023, published 2026):
Where a chain is given by its changes, count along the chain named. Several values for one entry are separate records, joined by “and”; a condition that tells them apart may be missing. Equal values may be shown once.

Tests used:
BMPR1A = target: T1, BMPR1A (Homo sapiens, UniProt P36894); experiment: ThermoFisher Lantha kinase screen, BMPR1A; type: biochemical; details: in vitro
T1 construct: purchased ThermoFisher
Source text: (§1) FIGS. 3A-3B depict a representation of KINOMEscan (Eurofins) binding data of CDD-2342 across the human kinome phylogenetic tree (FIG. 3A) and ThermoFisher Lantha kinase screen (FIG. 3B). FIG. 3A: The size of the circles (indicated with lines) are correlated with the affinity of ligand binding (i.e., larger circle, greater binding affinity). […] FIG. 3B: Using the ThermoFisher Lantha kinase screening assay, kinase specificity for ACVR1>ACVRL1>>BMPR1A>BMPR1B was observed.
(§2) Additionally, CDD-2342 is a >1000-fold better inhibitor of ACVR1 than non-TGFβ family kinases (FIGS. 3A-3B).

ACVR1^R206H = target: T2, ACVR1^R206H (Homo sapiens, UniProt Q04771, R206H); experiment: Promega NanoBRET live-cell target engagement, ACVR1 (R206H); type: cell-based; details: in cellulo; NI = No inhibition at 40 μM
T2 sequence (Q04771 21-509 R206H): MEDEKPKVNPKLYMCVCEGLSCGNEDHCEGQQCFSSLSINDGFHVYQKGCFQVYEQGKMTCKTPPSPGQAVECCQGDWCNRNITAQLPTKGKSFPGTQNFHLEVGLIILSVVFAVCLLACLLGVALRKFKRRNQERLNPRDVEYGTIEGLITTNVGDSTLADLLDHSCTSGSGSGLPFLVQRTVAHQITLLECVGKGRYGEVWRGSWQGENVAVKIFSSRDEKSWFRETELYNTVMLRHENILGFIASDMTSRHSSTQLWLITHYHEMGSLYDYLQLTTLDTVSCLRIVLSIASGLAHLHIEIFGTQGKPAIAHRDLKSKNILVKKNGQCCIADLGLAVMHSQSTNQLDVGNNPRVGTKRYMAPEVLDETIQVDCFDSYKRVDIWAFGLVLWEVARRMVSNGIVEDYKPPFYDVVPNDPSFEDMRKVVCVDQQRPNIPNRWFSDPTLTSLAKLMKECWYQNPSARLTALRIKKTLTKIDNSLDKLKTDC
Source text: (§3) The Promega NanoBRET target engagement system involves cell-based competitive displacement of a fluorescent NanoBRET tracer bound reversibly to a NanoLuc fusion protein. Test compounds displace the tracer dependent on their affinity for the target and reduce […] the NanoBRET signal. […]

ACVR1^WT = target: T3, ACVR1^WT (Homo sapiens, UniProt Q04771); experiment: Promega NanoBRET live-cell target engagement, ACVR1; type: cell-based; details: in cellulo; NI = No inhibition at 40 μM
T3 sequence (Q04771 21-509): T2 sequence (Q04771 21-509 R206H) with H186R
Source text: as §3

[1] = Metabolic stability in mouse liver microsomes; type: in vitro ADME; details: some cells add hours in brackets
Source text: (§4) Exemplary compounds of the present disclosure have been evaluated for metabolic stability in mouse and human liver microsomes.

BMPR1B = target: T4, BMPR1B (Homo sapiens, UniProt O00238); experiment: ThermoFisher Lantha kinase screen, BMPR1B; type: biochemical; details: in vitro
T4 construct: purchased ThermoFisher
Source text: as §1, §2

[2] = test system: BMP2-induced luciferase activity in 293T-BRE-reporter cells; experiment: BMP2-induced luciferase reporter activity in 293T-BRE reporter cells; type: cell-based; details: 30 min pre-treatment, 5 ng/ml BMP2, 6 hours
Experimental: BMP2-dependent luciferase reporter activation was quantified after 6 hours using the Promega BrightGLO luciferase system on a Tecan Infinity M1000 Pro plate reader.
FIG. 10 provides a bar graph depicting inhibition of BMP2-induced luciferase activity in 293T-BRE-reporter cells. Approximately 20,000 cells per well were plated in a 96-well plate and allowed to attach overnight. […] Cells were then stimulated with vehicle or 5 ng/ml BMP2 for 6 hours. Luciferase transactivation was assessed using the Promega BrightGLO luciferase system (Promega) and the signal was quantified using a plate reader (M1000 Pro).

ACVRL1 [3] = target: T5, ACVRL1 (Homo sapiens, UniProt P37023); experiment: Promega NanoBRET live-cell target engagement, ACVRL1; type: cell-based; details: in cellulo; NI = No inhibition at 40 μM
T5 construct: purchased ThermoFisher
Source text: The Promega NanoBRET target engagement system involves cell-based competitive displacement of a fluorescent NanoBRET tracer bound reversibly to a NanoLuc fusion protein. Test compounds displace the tracer dependent on their affinity for the target and reduce loss of the NanoBRET signal.
Further, HEK29T cells with stable expression of a BMP reporter element driving luciferase expression can be used to test inhibition of BMP-induced luciferase transactivation. […] Additionally, utilizing the HEPG2 cell system described herein, responsiveness to activin and induction of Hepcidin (HAMP) gene expression can be probed in the presence and absence of ACVR1 inhibitors, as well as the influence of tacrolimus on activin-induced hepcidin gene expression.
Thus, the in cellulo assays described herein comprise a luciferase reporter cell line system.

ACVRL1 [4] = target: T5, ACVRL1; experiment: ThermoFisher (Lantha) kinase assay, inhibition of ACVRL1; type: biochemical; details: in vitro, NA = not active at 1 μM
[5] = Metabolic stability in human liver microsomes; type: in vitro ADME; details: some cells add hours in brackets
Source text: as §4

human kinome = experiment: KINOMEscan (Eurofins) binding across the human kinome; details: tested at a dose of 1 μM
Source text: as §1

ACVR1 = target: T6, ACVR1 (Homo sapiens, UniProt Q04771); experiment: ThermoFisher (Lantha) kinase assay, inhibition of ACVR1; type: biochemical; details: for IC50: ThermoFisher Assay, in vitro
T6 construct: purchased ThermoFisher
T6 sequence (Q04771 21-509): T2 sequence (Q04771 21-509 R206H) with H186R

[6] = test system: pSMAD1/5 in WT fibroblasts (WT GM01652); experiment: BMP2-induced pSMAD1/5 Western blot in primary WT fibroblasts; type: cell-based, human; details: 1, 5, 25 μM, 30 min pre-treatment, 5 ng/mL BMP2 45 min
Experimental: (§5) FIG. 11 depicts inhibition of phosphorylated SMAD1/5 (pSMAD1/5) in primary WT and FOP fibroblasts. […] Subsequently, the fibroblasts were treated with vehicle (i.e., DMSO) or 5 ng/mL BMP2 in the presence of the inhibitors for 45 minutes. Cell lysates were then probed with antibodies against pSMAD1/5, total SMAD5, total SMAD1, and GAPDH (i.e., loading control) using a Western blot.

[7] = Pharmacokinetic study in mice, oral gavage; details: mouse, in vivo, 50 mg/kg oral gavage, n = 4, mean ± SD
Source text: (§6) The present disclosure further provides exemplary pharmacokinetic data for compound CDD-2789.

HepG2 cells = experiment: Cytotoxicity in HepG2 cells (Cell Titer GLO, cellular ATP); type: cell-based; details: 24 hours, concentrations up to 100 μM
[8] = Plasma ALT and AST levels in mice after treatment; type: in vivo; details: 24 h post-administration, individual mice No. 1-4
Source text: as §6

[9] = test system: pSMAD1/5 in FOP fibroblasts (FOP GM00513); experiment: BMP2-induced pSMAD1/5 Western blot in primary FOP fibroblasts; type: cell-based, human; details: 1, 5, 25 μM, 30 min pre-treatment, 5 ng/mL BMP2 45 min
Experimental: as §5

T5 sequence (P37023 22-503): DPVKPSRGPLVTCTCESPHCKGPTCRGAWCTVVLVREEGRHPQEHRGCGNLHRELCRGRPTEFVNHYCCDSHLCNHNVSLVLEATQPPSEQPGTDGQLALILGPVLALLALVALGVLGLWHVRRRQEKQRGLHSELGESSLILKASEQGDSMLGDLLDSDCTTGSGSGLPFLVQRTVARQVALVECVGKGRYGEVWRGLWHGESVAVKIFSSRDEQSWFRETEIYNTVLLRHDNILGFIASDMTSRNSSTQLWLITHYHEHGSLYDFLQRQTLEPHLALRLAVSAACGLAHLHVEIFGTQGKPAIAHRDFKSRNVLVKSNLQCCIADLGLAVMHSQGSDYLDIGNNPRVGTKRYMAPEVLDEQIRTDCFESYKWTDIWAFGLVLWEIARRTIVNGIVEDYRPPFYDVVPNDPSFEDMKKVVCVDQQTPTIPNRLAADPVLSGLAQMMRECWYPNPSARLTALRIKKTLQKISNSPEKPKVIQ
T4 sequence (O00238 14-502): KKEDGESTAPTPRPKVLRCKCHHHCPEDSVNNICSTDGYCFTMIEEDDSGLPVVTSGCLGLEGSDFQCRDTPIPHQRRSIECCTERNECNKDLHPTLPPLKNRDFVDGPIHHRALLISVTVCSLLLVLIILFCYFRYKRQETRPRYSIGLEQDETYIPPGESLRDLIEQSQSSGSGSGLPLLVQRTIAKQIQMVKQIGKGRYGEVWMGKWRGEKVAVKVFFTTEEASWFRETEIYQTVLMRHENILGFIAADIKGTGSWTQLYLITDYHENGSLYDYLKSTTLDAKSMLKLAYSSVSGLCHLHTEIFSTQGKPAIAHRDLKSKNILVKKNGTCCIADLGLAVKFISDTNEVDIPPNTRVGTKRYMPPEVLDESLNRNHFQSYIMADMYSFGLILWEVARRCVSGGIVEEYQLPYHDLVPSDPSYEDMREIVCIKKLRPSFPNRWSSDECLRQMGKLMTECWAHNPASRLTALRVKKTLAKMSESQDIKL
T1 sequence (P36894 24-532): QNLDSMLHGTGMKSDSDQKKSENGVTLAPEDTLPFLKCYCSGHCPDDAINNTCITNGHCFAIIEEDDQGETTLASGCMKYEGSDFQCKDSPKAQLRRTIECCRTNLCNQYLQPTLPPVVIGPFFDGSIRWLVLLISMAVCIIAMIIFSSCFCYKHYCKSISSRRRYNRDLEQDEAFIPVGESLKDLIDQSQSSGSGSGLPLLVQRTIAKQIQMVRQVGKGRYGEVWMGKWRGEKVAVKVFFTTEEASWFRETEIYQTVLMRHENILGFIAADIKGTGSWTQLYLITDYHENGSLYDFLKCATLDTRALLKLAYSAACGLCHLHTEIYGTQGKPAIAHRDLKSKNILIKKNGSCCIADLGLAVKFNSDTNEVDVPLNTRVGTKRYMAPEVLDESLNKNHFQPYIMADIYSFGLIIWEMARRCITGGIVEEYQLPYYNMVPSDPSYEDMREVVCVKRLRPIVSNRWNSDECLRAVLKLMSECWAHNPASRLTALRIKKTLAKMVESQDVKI

Compound | IC50 (ACVR1^R206H) | IC50 (ACVR1^WT) | Metabolism MLM [1] [min] | IC50 (ACVRL1 [3]) | IC50 (ACVRL1 [4]) [nM] | Metabolism HLM [5] [min] | IC50 (ACVR1) [nM] | further results
COc1cc(-c2nc3ccc(C(=O)NCCCN4CCN(c5cccc(C)c5C)CC4)cc3n2C2CCC2)cc(OC)c1OC [CDD-2342, 1-cyclobutyl-N-(3-(4-(2,3-dimethylphenyl)piperazin-1-yl)propyl)-2-(3,4,5-trimethoxyphenyl)-1H-benzo[d]imidazole-6-carboxamide] | 1470 nM and 1480 nM | 830 nM and 810 nM | 0 | 11100 nM and 11400 nM | 18.8 | 0.5 | 6.1 | IC50 (BMPR1A): 257 nM; IC50 (BMPR1B): 687 nM; inhibition of BMP2-induced reporter activity ([2]; 1 μM, 5 μM, 10 μM): significantly inhibits; off-target binding across the human kinome (human kinome): minimal off-target binding; fold better inhibitor of ACVR1 than non-TGFβ family kinases (ACVR1; FIGS. 3A-3B): > 1000 fold; kinase specificity (rank order) (ACVR1; ThermoFisher Lantha kinase screening assay, FIG. 3B): ACVR1>ACVRL1>>BMPR1A>BMPR1B
COc1cc(-c2nc3ccc(C(=O)NCCCN(C)C)cc3n2C2CCC2)cc(OC)c1OC [CDD-2789, 1-cyclobutyl-N-(3-(dimethylamino)propyl)-2-(3,4,5-trimethoxyphenyl)-1H-benzo[d]imidazole-6-carboxamide] |  |  |  |  | 9.9 |  |  | suppression of BMP2-induced pSMAD1/5 activation, WT fibroblasts [6]: suppressed; Metabolism MLM (Min) [1]: 505 (8.4 h) Min; half-life [7]: ~3.42 h; inhibition of BMP2-induced luciferase activity ([2]; 0.2, 1, 5, 25 μM): Potent inhibition; Metabolism HLM (Min) [5]: 2767 (46.1 h) Min; cytotoxicity (cell viability, cellular ATP) (HepG2 cells): no cytotoxicity; Plasma ALT [8]: 21.83 IU/L and 165.48 IU/L and 25.81 IU/L and 23.60 IU/L; Plasma AST [8]: 30.76 IU/L and 141.26 IU/L and 42.08 IU/L and 55.52 IU/L; suppression of BMP2-induced pSMAD1/5 activation, FOP fibroblasts [9]: suppressed
N-(3-(4-benzoylpiperazin-1-yl)propyl)-1-cyclobutyl-2-(3,4,5-trimethoxyphenyl)-1H-benzo[d]imidazole-6-carboxamide [CDD-2791] | 2600 nM | 1080 nM | 2.8 | > 40000 nM | 14.6 | 15.4 | 7.9 | 
